Reference: the supplement of paper PMC12317010
Counter-ions that a name gives are not always drawn. Values belong to the compound of their own block, whether it stands above or below them.

Test: collision cross section in nitrogen (drift tube, single-field); higher = larger gas-phase ion size
[1] = ion source: ESI, ion mode: Positive, ion type: [M]+ (permanent cation)
[2] = ion type: [M+H], ion source: APCI, ion mode: Positive
[3] = ion type: [M+H], ion source: ESI, ion mode: Positive
[4] = ion type: [M+Na], ion source: ESI, ion mode: Positive
[5] = ion type: [M-H], ion source: ESI, ion mode: Negative
[6] = ion type: [M+], ion source: APCI, ion mode: Positive
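Also: chemical standards at 10 µM analysed by drift tube IMS-QTOF MS in about 3.95 torr nitrogen, mean of duplicate injections differing ≤1%, mass error below 10 ppm.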

Compound: CCNc1cc2[o+]c3cc(NCC)c(C)cc3c(-c3ccccc3C(=O)OCC)c2cc1C [Rhodamine 6G]
collision cross section in nitrogen (ion source: APCI, ion mode: Positive, ion type: [M]+ (permanent cation)): 218.3 Å² | collision cross section in nitrogen [1]: 218.9 Å²

Compound: CCN(CC)c1ccc2c(-c3ccccc3C(=O)O)c3ccc(N(CC)CC)cc3[o+]c2c1 [Rhodamine B]
collision cross section in nitrogen [1]: 218.1 Å²

Compound: COc1ccn(C)c(=O)c1C#N [Ricinine]
collision cross section in nitrogen [2]: 132.2 Å² | collision cross section in nitrogen [3]: 132.4 Å² | collision cross section in nitrogen [4]: 143 Å²

Compound: CO[C@H]1/C=C/O[C@@]2(C)Oc3c(C)c(O)c4c(O)c(c(/C=N/N5CCN(C)CC5)c(O)c4c3C2=O)NC(=O)/C(C)=C\C=C\[C@H](C)[C@H](O)[C@@H](C)[C@@H](O)[C@@H](C)[C@H](OC(C)=O)[C@@H]1C [Rifampicin]
collision cross section in nitrogen [3]: 282.3 Å² | collision cross section in nitrogen [4]: 279 Å²

Compound: O=C(CCCCCCCCc1cccnc1)N1CCC(C=C(c2ccccc2)c2ccccc2)CC1 [Ro 23-7637]
collision cross section in nitrogen [2]: 239.1 Å² | collision cross section in nitrogen [3]: 238 Å² | collision cross section in nitrogen [4]: 242.7 Å²

Compound: COc1cc(C(=O)NC2CCN(C)CC2)ccc1Nc1ncc2c(n1)N(C1CCCC1)CC(F)(F)C(=O)N2C [Ro 3280]
collision cross section in nitrogen [2]: 250.9 Å² | collision cross section in nitrogen [3]: 250.7 Å² | collision cross section in nitrogen [4]: 262.3 Å² | collision cross section in nitrogen [5]: 236.7 Å²

Compound: CN(CCOc1ccc(CC2SC(=O)NC2=O)cc1)c1ccccn1 (stereo not given) [Rosiglitazone maleate]
collision cross section in nitrogen [2]: 172.4 Å² | collision cross section in nitrogen [3]: 172.5 Å² | collision cross section in nitrogen [4]: 182.7 Å² | collision cross section in nitrogen [5]: 176.3 Å²

Compound: C=C(C)[C@H]1Cc2c(ccc3c2O[C@@H]2COc4cc(OC)c(OC)cc4[C@@H]2C3=O)O1 [Rotenone]
collision cross section in nitrogen [3]: 194.8 Å² | collision cross section in nitrogen [4]: 207.3 Å² | collision cross section in nitrogen [5]: 199 Å²

Compound: CC[C@H]1OC(=O)[C@H](C)[C@@H](O[C@H]2C[C@@](C)(OC)[C@@H](O)[C@H](C)O2)[C@H](C)[C@@H](O[C@@H]2O[C@H](C)C[C@H](N(C)C)[C@H]2O)[C@](C)(O)C[C@@H](C)C(=NOCOCCOC)[C@H](C)[C@@H](O)[C@]1(C)O [Roxithromycin]
collision cross section in nitrogen [2]: 277.7 Å² | collision cross section in nitrogen [3]: 276.9 Å² | collision cross section in nitrogen [4]: 280.7 Å² | collision cross section in nitrogen [6]: 276.3 Å² | collision cross section in nitrogen [5]: 282.3 Å²

Compound: C=CCC1=C(C)[C@@H](OC(=O)[C@@H]2[C@@H](C=C(C)C)C2(C)C)CC1=O [S-Bioallethrin]
collision cross section in nitrogen [4]: 184.5 Å²

Compound: CCc1cccc(C)c1N(C(=O)CCl)[C@@H](C)COC [S-Metolachlor]
collision cross section in nitrogen [2]: 159.5 Å² | collision cross section in nitrogen [3]: 160.1 Å² | collision cross section in nitrogen [4]: 172.5 Å²

Compound: O=C1NS(=O)(=O)c2ccccc21 [Saccharin]
collision cross section in nitrogen [5]: 131.1 Å²

Compound: O=C(Nc1ccccc1)c1ccccc1O [Salicylanilide]
collision cross section in nitrogen [2]: 144.8 Å² | collision cross section in nitrogen [5]: 145.5 Å²

Compound: O=C(NO)c1ccccc1O [Salicylhydroxamic acid]
collision cross section in nitrogen [5]: 124.5 Å²

Compound: O=C(O)c1cn(-c2ccc(F)cc2)c2cc(N3CCNCC3)c(F)cc2c1=O [Sarafloxacin]
collision cross section in nitrogen [2]: 188.2 Å² | collision cross section in nitrogen [3]: 188.3 Å² | collision cross section in nitrogen [4]: 204.8 Å²

Compound: CN1[C@@H]2C[C@@H](OC(=O)[C@H](CO)c3ccccc3)C[C@H]1[C@@H]1O[C@@H]12 [Scopolamine hydrobromide]
collision cross section in nitrogen [2]: 170.8 Å² | collision cross section in nitrogen [3]: 171.7 Å²

Compound: CN1[C@@H]2C[C@@H](OC(=O)[C@H](CO)c3ccccc3)C[C@H]1[C@@H]1O[C@@H]12 [Scopolamine hydrochloride]
collision cross section in nitrogen [2]: 172.2 Å² | collision cross section in nitrogen [3]: 171.7 Å²

Compound: CCNc1nc(NC(C)CC)nc(OC)n1 (stereo not given) [Secbumeton]
collision cross section in nitrogen [2]: 155.3 Å² | collision cross section in nitrogen [3]: 155.2 Å² | collision cross section in nitrogen [4]: 172.2 Å²

Compound: CCCC(=NOCC)C1=C(O)CC(CC(C)SCC)CC1=O (stereo not given) [Sethoxydim]
collision cross section in nitrogen [2]: 181.6 Å² | collision cross section in nitrogen [3]: 181 Å² | collision cross section in nitrogen [5]: 178.5 Å²

Compound: CCNc1nc(Cl)nc(NCC)n1 [Simazine]
collision cross section in nitrogen [2]: 143.3 Å² | collision cross section in nitrogen [3]: 144 Å²

Compound: CCNc1nc(NCC)nc(SC)n1 [Simetryn]
collision cross section in nitrogen [2]: 149.6 Å² | collision cross section in nitrogen [3]: 149.5 Å²

Compound: Sc1nc2ccccc2s1 [Sodium 2-mercaptobenzothiolate]
collision cross section in nitrogen [5]: 127.7 Å²

Compound: COc1ccc([N+](=O)[O-])cc1O [Sodium 2-methoxy-5-nitrophenolate]
collision cross section in nitrogen [5]: 129.6 Å²

Compound: O=[N+]([O-])c1ccccc1O [Sodium 2-nitrophenolate]
collision cross section in nitrogen [5]: 121.6 Å²

Compound: Oc1ccccc1-c1ccccc1 [Sodium 2-phenylphenate tetrahydrate]
collision cross section in nitrogen [5]: 136.6 Å²

Compound: CC(C)C1=CC2=CC[C@@H]3[C@](C)(CCC[C@@]3(C)C(=O)O)[C@H]2CC1 [Sodium abietate]
collision cross section in nitrogen [5]: 182 Å²

Compound: COc1cccc2c1cc([N+](=O)[O-])c1c(C(=O)O)cc3c(c12)OCO3 [Sodium aristolochate-I]
collision cross section in nitrogen [4]: 185.6 Å²

Compound: [O-][Cl+]O [Sodium chlorite]
collision cross section in nitrogen [5]: 105.2 Å²

Compound: CC(C)CP(=S)(S)CC(C)C [Sodium diisobutyldithiophosphinate]
collision cross section in nitrogen [5]: 146.5 Å²

Compound: F[B-](F)(F)F [Sodium tetrafluoroborate]
collision cross section in nitrogen (ion source: ESI, ion mode: Negative, ion type: [M]- (permanent anion)): 101 Å²

Other lines, results leading:

collision cross section in nitrogen [5]: 174.4 Å²
Compound: CS(=O)(=O)c1ccc(C2=C(c3ccccc3)C(=O)OC2)cc1 [Rofecoxib]

collision cross section in nitrogen [4]: 143.1 Å²
Compound: Cn1c([N+](=O)[O-])cnc1COC(N)=O [Ronidazole]

collision cross section in nitrogen [2]: 153.9 Å² | collision cross section in nitrogen [3]: 154.2 Å² | collision cross section in nitrogen [6]: 152.2 Å² | collision cross section in nitrogen [5]: 158.4 Å²
Compound: Cc1cc(C)c(C=C2C(=O)Nc3ccccc32)[nH]1 [SU-5416]

collision cross section in nitrogen [5]: 122.2 Å²
Compound: NC(=O)c1ccccc1O [Salicylamide]

collision cross section in nitrogen [5]: 121.2 Å²
Compound: O=C(O)c1ccccc1O [Salicylic acid]

collision cross section in nitrogen [4]: 189.2 Å² | collision cross section in nitrogen [5]: 178.9 Å²
Compound: C=C[C@](C)(O)CC[C@@H]1[C@@]2(C)CCCC(C)(C)[C@@H]2CC[C@@]1(C)O [Sclareol]

collision cross section in nitrogen [5]: 174.4 Å²
Compound: CC(C)COC(=O)CC(C(=O)OCC(C)C)S(=O)(=O)O (stereo not given) [Sodium 1,4-diisobutyl sulfosuccinate]

collision cross section in nitrogen [5]: 141.6 Å²
Compound: O=S(=O)(O)c1cccc2ccccc12 [Sodium 1-naphthalenesulfonate]

collision cross section in nitrogen [5]: 138.5 Å²
Compound: Cc1ccc(C)c(S(=O)(=O)O)c1 [Sodium 2,5-dimethylbenzenesulfonate]

collision cross section in nitrogen [3]: 151.1 Å² | collision cross section in nitrogen [4]: 167.9 Å²
Compound: O=S(=O)(O)CCN1CCN(CCO)CC1 [Sodium 2-[4-(2-hydroxyethyl)piperazin-1-yl]ethanesulfonate]

collision cross section in nitrogen [5]: 162 Å²
Compound: O=C1c2ccccc2C(=O)c2cc(S(=O)(=O)O)ccc21 [Sodium 2-anthraquinonesulfonate]

collision cross section in nitrogen [5]: 130.9 Å²
Compound: O=Cc1ccccc1S(=O)(=O)O [Sodium 2-formylbenzenesulfonate]

collision cross section in nitrogen [5]: 131.7 Å²
Compound: Cc1ccccc1S(=O)(=O)O [Sodium 2-methylbenzenesulfonate]

collision cross section in nitrogen [5]: 124.2 Å²
Compound: C=C(C)CS(=O)(=O)O [Sodium 2-methylprop-2-ene-1-sulfonate]

collision cross section in nitrogen [5]: 131.2 Å²
Compound: O=C(O)c1cccc([N+](=O)[O-])c1 [Sodium 3-nitrobenzoate]

collision cross section in nitrogen [5]: 147.5 Å²
Compound: CC(C)c1ccc(S(=O)(=O)O)cc1 [Sodium 4-isopropylbenzenesulfonate]

collision cross section in nitrogen [5]: 135.2 Å²
Compound: Cc1ccc(S(=O)(=O)O)cc1 [Sodium 4-methylbenzenesulfonate]

collision cross section in nitrogen [5]: 120.5 Å²
Compound: O=[N+]([O-])c1ccc(O)cc1 [Sodium 4-nitrophenolate]

collision cross section in nitrogen [5]: 173.9 Å²
Compound: CCCCCCCCc1ccc(S(=O)(=O)O)cc1 [Sodium 4-octylbenzenesulfonate]

collision cross section in nitrogen [5]: 148.7 Å²
Compound: O=S(=O)(O)c1ccc2cc(O)ccc2c1 [Sodium 6-hydroxynaphthalene-2-sulfonate]

collision cross section in nitrogen [5]: 125.4 Å²
Compound: N[C@@H](CCC(=O)O)C(=O)O [Sodium L-glutamate hydrate]

collision cross section in nitrogen [5]: 158.1 Å²
Compound: CCCCCCCCCCOS(=O)(=O)O [Sodium decyl sulfate]

collision cross section in nitrogen [4]: 167.5 Å² | collision cross section in nitrogen [5]: 186.3 Å²
Compound: CCCCCCCCCCCCc1ccccc1S(=O)(=O)O [Sodium dodecylbenzenesulfonate]

collision cross section in nitrogen [5]: 150.1 Å²
Compound: CCCCC(CC)COS(=O)(=O)O (stereo not given) [Sodium ethasulfate hydrate]

collision cross section in nitrogen [5]: 150.5 Å²
Compound: CCCCC(CC)COS(=O)(=O)O (stereo not given) [Sodium ethasulfate]

collision cross section in nitrogen [5]: 113.6 Å²
Compound: C=CS(=O)(=O)O [Sodium ethenesulfonate]

collision cross section in nitrogen [5]: 181.3 Å²
Compound: CCCCCCCCCCCCCCCCOS(=O)(=O)O [Sodium hexyldecyl sulfate]

collision cross section in nitrogen [5]: 138.9 Å²
Compound: Cc1ccc(S(=O)(=O)O)c(C)c1 [Sodium m-xylene-4-sulfonate]

collision cross section in nitrogen [5]: 113.1 Å²
Compound: COS(=O)(=O)O [Sodium methyl sulfate]

collision cross section in nitrogen [5]: 173.4 Å²
Compound: CCCCCCCCCCCCCCOS(=O)(=O)O [Sodium myristyl sulfate]

collision cross section in nitrogen [2]: 123.5 Å² | collision cross section in nitrogen [3]: 124.5 Å²
Compound: O=C(O)c1cccnc1 [Sodium nicotinate]

collision cross section in nitrogen [5]: 154.5 Å²
Compound: CCCCCCCCCOS(=O)(=O)O [Sodium nonyl sulfate]

collision cross section in nitrogen [5]: 151.3 Å²
Compound: CCCCCCCCOS(=O)(=O)O [Sodium octyl sulfate]

collision cross section in nitrogen [4]: 151.2 Å² | collision cross section in nitrogen [5]: 147.1 Å²
Compound: CC(C)(CO)[C@@H](O)C(=O)NCCC(=O)O [Sodium pantothenate]

collision cross section in nitrogen [5]: 170 Å²
Compound: CCCCCCCCCCCCCOS(=O)(=O)O [Sodium tridecyl sulfate]

collision cross section in nitrogen [5]: 137 Å²
Compound: CCCC(CCC)C(=O)O [Sodium valproate]
